Here are results for 15 compounds from the SangsterLogP compilation.

This series in a line: method code SF-AS, from DOI: 10.1002/zfch.19810211114.
As a reminder, the logP is a log measure of how a compound divides between an organic and an aqueous phase. `NNC(N)=O` registered a logP of -2.75.

`CCCCNC(=O)NN` came in with a logP of -0.6. To `CCCNC(=O)NN` belongs -1.1; to `CCCCCNC(=O)NN`, -0.04. To `CN(C)C(=O)NN` belongs -1.57; to `CC(C)CNC(=O)NN`, -0.84; to `CC(C)(C)NC(=O)NN`, -0.81.

Consider `CNC(=O)NN`, for which the logP is -2.2.

As for `NNC(=O)NC1CCCCC1`, the logP is 0.15. In the case of `NNC(=O)NCc1ccccc1` it was -0.22; in that of `CCCCCCNC(=O)NN`, 0.46; in that of `CC(C)NC(=O)NN`, -1.3.

Compound `CCNC(=O)NN` yielded a logP of -1.62.

The compound `C=CCNC(=O)NN` came in with a log partition coefficient (logP) of -1.55.

`CCN(CC)C(=O)NN` showed a logP of -0.62.
